Experimental data reported in patent US10093683B2, “Factor XIa inhibitors” (Merck Sharp & Dohme Corp., priority 2014, dated 2018).

Biological target: human Factor XIa (Homo sapiens (Human), UniProt P03951)
Assay: Factor XIa Assay
Type: biochemical
Details: purified human Factor XIa 40 pM, Z-Gly-Pro-Arg-AFC 100 μM, pH 7.4; read-out: FXIa Ki
Procedure: The effectiveness of a compound of the present invention as an inhibitor of Coagulation Factor XIa can be determined using a relevant purified serine protease, and an appropriate synthetic substrate. The rate of hydrolysis of the chromogenic or fluorogenic substrate by the relevant serine protease was measured both in the absence and presence of compounds of the present invention. Assays were conducted at room temperature or at 37° C. […] A decrease in the rate of fluorescence change in the presence of inhibitor is indicative of enzyme inhibition. Such methods are known to one skilled in the art. The results of this assay are expressed as the inhibitory constant, Ki.
Factor XIa determinations were made in 50 mM HEPES buffer at pH 7.4 containing 150 mM NaCl, 5 mM CaCl2, and 0.1% PEG 8000 (polyethylene glycol; JT Baker or Fisher Scientific). Determinations were made using purified human Factor XIa at a final concentration of 40 pM (Sekisui Diagnostics) and he synthetic substrate, Z-Gly-Pro-Arg-AFC, TFA salt (Sigma #C0980) at a concentration of 100 μM.
Times required to achieve equilibration between enzyme and inhibitor were determined in control experiments. Initial velocities of product formation in the absence (Vo) or presence of inhibitor (Vi) were measured. Assuming competitive inhibition, and that unity is negligible compared Km/[S], [I]/e, and [I]/e (where [S], [I], and e respectively represent the total concentrations, of substrate, inhibitor and enzyme), the equilibrium constant (Ki) for dissociation of the inhibitor from the enzyme can be obtained from the dependence of Vo/Vi on [I] shown in the following equation.

Chain of human Factor XIa (P03951 388-625): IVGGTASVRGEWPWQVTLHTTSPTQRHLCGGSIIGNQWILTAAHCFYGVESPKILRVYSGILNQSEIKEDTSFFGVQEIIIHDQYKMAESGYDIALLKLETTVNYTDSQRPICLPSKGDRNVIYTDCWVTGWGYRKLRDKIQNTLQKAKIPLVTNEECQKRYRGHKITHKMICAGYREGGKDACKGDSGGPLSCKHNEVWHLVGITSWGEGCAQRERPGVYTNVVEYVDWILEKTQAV
Chain of human Factor XIa (P03951 19-387 partner): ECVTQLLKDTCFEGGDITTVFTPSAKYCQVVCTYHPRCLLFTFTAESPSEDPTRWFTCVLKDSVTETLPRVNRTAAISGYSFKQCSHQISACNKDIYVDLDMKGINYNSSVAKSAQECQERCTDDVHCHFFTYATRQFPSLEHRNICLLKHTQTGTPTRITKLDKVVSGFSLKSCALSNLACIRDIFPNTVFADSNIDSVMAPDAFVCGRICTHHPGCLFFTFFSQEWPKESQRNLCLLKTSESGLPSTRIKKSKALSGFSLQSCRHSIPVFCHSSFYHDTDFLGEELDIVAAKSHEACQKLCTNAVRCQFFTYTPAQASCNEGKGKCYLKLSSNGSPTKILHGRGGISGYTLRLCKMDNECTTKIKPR

Point of comparison: `COC(=O)Nc1ccc(C(=O)N[C@@H](CC(=O)Nc2ccccn2)C(=O)N2CC[C@@]3(C2)OC(=O)Nc2ccc(Cl)cc23)cc1` [Example 90, methyl (4-(((S)-1-((R)-6-chloro-2-oxo-1,2-dihydrospiro[benzo[d][1,3]oxazine-4,3′-pyrrolidin]-1′-yl)-1,4-dioxo-4-(pyridin-2-ylamino)butan-2-yl)carbamoyl)phenyl)carbamate], Ki 57.4 nM. Against it:
- COC(=O)Nc1ccc(C(=O)NC[C@@H](Cc2ccccc2)C(=O)N2CCC3(C2)OC(=O)Nc2ccc(Cl)cc23)cc1 (stereo partly drawn) [Example 41, methyl (4-(((2R)-2-benzyl-3-(6-chloro-2-oxo-1,2-dihydrospiro[benzo[d][1,3]oxazine-4,3′-pyrrolidin]-1′-yl)-3-oxopropyl)carbamoyl)phenyl)carbamate] — higher, > 5000 nM
- COC(=O)Nc1ccc(C(=O)NC(CC2CCS(=O)(=O)CC2)C(=O)N2CCC3(C2)OC(=O)Nc2ccc(Cl)cc23)cc1 (stereo not drawn) [Example 42, methyl (4-((1-(6-chloro-2-oxo-1,2-dihydrospiro[benzo[d][1,3]oxazine-4,3′-pyrrolidin]-1′-yl)-3-(1,1-dioxidotetrahydro-2H-thiopyran-4-yl)-1-oxopropan-2-yl)carbamoyl)phenyl)carbamate] — within 1.5-fold, 83.6 nM
- COC(=O)Nc1ccc(C(=O)N[C@@H](Cc2ccc(NS(C)(=O)=O)cc2)C(=O)N2CCC[C@@]3(C2)OC(=O)Nc2ccc(Cl)cc23)cc1 [Example 46, methyl (4-(((S)-1-((R)-6-chloro-2-oxo-1,2-dihydrospiro[benzo[d][1,3]oxazine-4,3′-piperidin]-1′-yl)-3-(4-(methylsulfonamido)phenyl)-1-oxopropan-2-yl)carbamoyl)phenyl)carbamate] — 150-fold lower, 0.39 nM
- COC(=O)Nc1ccc(C(=O)N[C@H](CC(=O)N2CCC3(C2)OC(=O)Nc2ccc(Cl)cc23)Cc2ccccc2)cc1 (stereo partly drawn) [Example 49, methyl (4-(((2S)-4-(6-chloro-2-oxo-1,2-dihydrospiro[benzo[d][1,3]oxazine-4,3′-pyrrolidin]-1′-yl)-4-oxo-1-phenylbutan-2-yl)carbamoyl)phenyl)carbamate] — 6.3-fold higher, 362 nM
- COC(=O)Nc1ccc(C(=O)N[C@@H](CCCCO)C(=O)N2CCC3(C2)OC(=O)Nc2ccc(Cl)cc23)cc1 (stereo partly drawn) [Example 51, methyl (4-(((2S)-1-(6-chloro-2-oxo-1,2-dihydrospiro[benzo[d][1,3]oxazine-4,3′-pyrrolidin]-1′-yl)-6-hydroxy-1-oxohexan-2-yl)carbamoyl)phenyl)carbamate] — within 1.5-fold, 55.7 nM
- COC(=O)Nc1ccc(C(=O)N[C@@H](CCCCNC(=O)C(F)(F)F)C(=O)N2CCC[C@@]3(C2)OC(=O)Nc2ccc(Cl)cc23)cc1 [Example 54, methyl (4-(((S)-1-((R)-6-chloro-2-oxo-1,2-dihydrospiro[benzo[d][1,3]oxazine-4,3′-piperidin]-1′-yl)-1-oxo-6-(2,2,2-trifluoroacetamido)hexan-2-yl)carbamoyl)phenyl)carbamate] — within 1.5-fold, 52 nM
- COC(=O)Nc1ccc(C(=O)N[C@@H](C)C(=O)N2CCC[C@@]3(C2)OC(=O)Nc2ccc(Cl)cc23)cc1 [Example 55, methyl (4-(((S)-1-((R)-6-chloro-2-oxo-1,2-dihydrospiro[benzo[d][1,3]oxazine-4,3′-piperidin]-1′-yl)-1-oxopropan-2-yl)carbamoyl)phenyl)carbamate] — 1.6-fold higher, 93.2 nM
- COC(=O)Nc1ccc(C(=O)N[C@@H](CC[S+](C)[O-])C(=O)N2CCC[C@@]3(C2)OC(=O)Nc2ccc(Cl)cc23)cc1 (stereo partly drawn) [Example 56, methyl (4-(((2S)-1-((R)-6-chloro-2-oxo-1,2-dihydrospiro[benzo[d][1,3]oxazine-4,3′-piperidin]-1′-yl)-4-(methylsulfinyl)-1-oxobutan-2-yl)carbamoyl)phenyl)carbamate] — 1.8-fold higher, 102 nM
- COC(=O)Nc1ccc(C(=O)N[C@@H](CCS(C)(=O)=O)C(=O)N2CCC[C@@]3(C2)OC(=O)Nc2ccc(Cl)cc23)cc1 [Example 59, methyl (4-(((S)-1-((R)-6-chloro-2-oxo-1,2-dihydrospiro[benzo[d][1,3]oxazine-4,3′-piperidin]-1′-yl)-4-(methylsulfonyl)-1-oxobutan-2-yl)carbamoyl)phenyl)carbamate] — 1.7-fold higher, 97.7 nM
- COC(=O)Nc1ccc(C(=O)N[C@@H](CC(F)(F)F)C(=O)N2CCC[C@@]3(C2)OC(=O)Nc2ccc(Cl)cc23)cc1 [Example 64, methyl (4-(((S)-1-((R)-6-chloro-2-oxo-1,2-dihydrospiro[benzo[d][1,3]oxazine-4,3′-piperidin]-1′-yl)-4,4,4-trifluoro-1-oxobutan-2-yl)carbamoyl)phenyl)carbamate] — 34-fold higher, 1930 nM
- COC(=O)Nc1ccc(C(=O)N[C@H](C(=O)N2CCC[C@@]3(C2)OC(=O)Nc2ccc(Cl)c(F)c23)C2CC2)cc1 [Example 68, methyl (4-(((S)-2-((R)-6-chloro-5-fluoro-2-oxo-1,2-dihydrospiro[benzo[d][1,3]oxazine-4,3′-piperidin]-1′-yl)-1-cyclopropyl-2-oxoethyl)carbamoyl)phenyl)carbamate] — within 1.5-fold, 56.4 nM
- COC(=O)Nc1ccc(C(=O)N[C@@H](Cc2cnc3ccccc3n2)C(=O)N2CCC[C@@]3(C2)OC(=O)Nc2ccc(Cl)c(F)c23)cc1 [Example 69, methyl (4-(((S)-1-((R)-6-chloro-5-fluoro-2-oxo-1,2-dihydrospiro[benzo[d][1,3]oxazine-4,3′-piperidin]-1′-yl)-1-oxo-3-(quinoxalin-2-yl)propan-2-yl)carbamoyl)phenyl)carbamate] — 1.6-fold lower, 36.2 nM
- COC(=O)Nc1ccc(C(=O)N[C@@H](Cc2c[nH]c3ccccc23)C(=O)N2CCC[C@@]3(C2)OC(=O)Nc2ccc(Cl)c(F)c23)cc1 [Example 70, methyl (4-(((S)-1-((R)-6-chloro-5-fluoro-2-oxo-1,2-dihydrospiro[benzo[d][1,3]oxazine-4,3′-piperidin]-1′-yl)-3-(1H-indol-3-yl)-1-oxopropan-2-yl)carbamoyl)phenyl)carbamate] — 2.8-fold lower, 20.7 nM
- COC(=O)Nc1ccc(C(=O)N[C@@H](CC2CCC2)C(=O)N2CCC[C@@]3(C2)OC(=O)Nc2ccc(Cl)cc23)cc1 [Example 71, methyl (4-(((S)-1-((R)-6-chloro-2-oxo-1,2-dihydrospiro[benzo[d][1,3]oxazine-4,3′-piperidin]-1′-yl)-3-cyclobutyl-1-oxopropan-2-yl)carbamoyl)phenyl)carbamate] — within 1.5-fold, 50.9 nM
- COC(=O)Nc1ccc(C(=O)N[C@@H](CC2CCCC2)C(=O)N2CCC[C@@]3(C2)OC(=O)Nc2ccc(Cl)cc23)cc1 [Example 73, methyl (4-(((S)-1-((R)-6-chloro-2-oxo-1,2-dihydrospiro[benzo[d][1,3]oxazine-4,3′-piperidin]-1′-yl)-3-cyclopentyl-1-oxopropan-2-yl)carbamoyl)phenyl)carbamate] — 1.8-fold lower, 32 nM
- COC/C=C/c1ccc(C[C@H](NC(=O)c2ccc(NC(=O)OC)cc2)C(=O)N2CC[C@@]3(C2)OC(=O)Nc2ccc(Cl)cc23)cc1 [Example 80, methyl (4-(((S)-1-((R)-6-chloro-2-oxo-1,2-dihydrospiro[benzo[d][1,3]oxazine-4,3′-pyrrolidin]-1′-yl)-3-(4-((E)-3-methoxyprop-1-en-1-yl)phenyl)-1-oxopropan-2-yl)carbamoyl)phenyl)carbamate] — within 1.5-fold, 75 nM
- COC(=O)Nc1ccc(C(=O)N[C@@H](CC(=O)N2CC(F)(F)C2)C(=O)N2CCC[C@@]3(C2)OC(=O)Nc2ccc(Cl)cc23)cc1 [Example 85, methyl (4-(((S)-1-((R)-6-chloro-2-oxo-1,2-dihydrospiro[benzo[d][1,3]oxazine-4,3′-piperidin]-1′-yl)-4-(3,3-difluoroazetidin-1-yl)-1,4-dioxobutan-2-yl)carbamoyl)phenyl)carbamate] — 1.7-fold lower, 33.3 nM
- COC(=O)Nc1ccc(C(=O)N[C@@H](CC(=O)NC2CCC2)C(=O)N2CCC[C@@]3(C2)OC(=O)Nc2ccc(Cl)cc23)cc1 [Example 86, methyl (4-(((S)-1-((R)-6-chloro-2-oxo-1,2-dihydrospiro[benzo[d][1,3]oxazine-4,3′-piperidin]-1′-yl)-4-(cyclobutylamino)-1,4-dioxobutan-2-yl)carbamoyl)phenyl)carbamate] — 1.7-fold lower, 33.7 nM
- COC(=O)Nc1ccc(C(=O)N[C@@H](CC(=O)N2CCOCC2)C(=O)N2CC[C@@]3(C2)OC(=O)Nc2ccc(Cl)cc23)cc1 [Example 88, methyl (4-(((S)-1-((R)-6-chloro-2-oxo-1,2-dihydrospiro[benzo[d][1,3]oxazine-4,3′-pyrrolidin]-1′-yl)-4-morpholino-1,4-dioxobutan-2-yl)carbamoyl)phenyl)carbamate] — 2.9-fold lower, 20 nM
- COC(=O)Nc1ccc(C(=O)N[C@@H](CC(=O)NC2CCOCC2)C(=O)N2CC[C@@]3(C2)OC(=O)Nc2ccc(Cl)cc23)cc1 [Example 89, methyl (4-(((S)-1-((R)-6-chloro-2-oxo-1,2-dihydrospiro[benzo[d][1,3]oxazine-4,3′-pyrrolidin]-1′-yl)-1,4-dioxo-4-((tetrahydro-2H-pyran-4-yl)amino)butan-2-yl)carbamoyl)phenyl)carbamate] — within 1.5-fold, 59.2 nM
